{"source": "patent US20250177423A1", "about": "“PHOTORESPONSIVE PEPTIDE DELIVERY SYSTEM AND METHOD OF USING THE SAME” (THE UNIVERSITY OF HONG KONG, priority 2023, published 2025)", "key": {"[1]": {"system": "IL-2 and TNF-α gene expression in Jurkat T cells", "experiment": "RT-qPCR of cytokine gene expression in Jurkat T cells co-cultured with MDA-MB-231 cells (PD-L1 blockade)", "format": "cell-based", "settings": "Jurkat T cells after co-culture with MDA-MB-231 cells; FM12 released from cFM12 nanoparticles; vs PBS control", "from_the_text": "FIGS. 13A-F. BODIPY-caged FM12 peptide (cFM12) nanoparticles for photo-triggered PD-L1 blockade. […] (E) Size distribution of nanoparticles. (F) Schematic diagram of cFM12 nanoparticles. (*: p<0.05; **: p<0.01; ***: p<0.001). The data are presented as mean±SEM.\nTo further explore whether the BODIPY photocage can be utilized to deliver other hydrophilic peptides, a peptide inhibitor (FPNWSLRPMNQM, SEQ ID NO: 2, FM12) targeting programmed death ligand 1 (PD-L1) was conjugated with BODIPY at N-terminus to synthesize BODIPY-caged FM12 (cFM12). The conjugate could also form stable polymeric nanoparticles with the help of PEG3.4K-PLA5K. […] For nanoparticle preparation, in brief, 2 μL of 10 mg/mL cFM12 was mixed with 2 μL of 100 mg/mL PEG3.4K-PLA5K in DMSO solution. […] As shown in FIGS. 13e and 13f, the fabricated nanoparticles had well-dispersed size distribution with diameter around 122 nm and PDI around 0.2."}, "laser induced CNV [2]": {"system": "laser induced CNV", "experiment": "Laser induced CNV mouse model, isolated tissue (choroidal flat mounts CD31/Ki-67, H&E)", "format": "in vivo, C57BL/6 mice", "settings": "without light irradiation; systemic administration", "description": "(§1) Four laser spots were produced on the fundus of mice by 810 nm laser to induce CNV. Specifically, C57BL/6 mice (6-8 w) were anesthetized with 1% pentobarbital sodium (40 mg/kg). Then their pupils were dilated with 0.5% tropicamide eyedrops and received local anesthesia by tetracaine eye drops, followed by carboxymethylcellulose sodium eye drops for prevention of ocular surface dehydration. Each mouse's eyes were applied four laser (six in case of western blot analysis) burns (810 nm wavelength, 140 mW of power, 75 μm of spot size, 75 ms of duration) with OcuLight Infrared Laser System at almost equal distance to the optic nerve head. Afterwards, the mice received chloramphenicol eye drops for infection prevention and rested on heating pad until consciousness. […] On day 3 and day 5 after laser photocoagulation, 2 mg/kg AS16 peptide and quantity equivalent nanoLAMPs were administered intravenously through tail veins. […] On day 7 post CNV induction, FFA (fluorescence fundus angiography) and OCTA (optical coherence tomography angiography) images of each group was collected, and the mice were then euthanized. […] Flat-mounted RPE-choroid slides were prepared by making 4 cuts from margin to the optic nerve, and the fluorescence images were acquired by confocal microscopy (LMS980 Carl Zeiss). The CNV lesion area was quantitatively analyzed by ImageJ software. […]"}, "laser induced CNV [3]": {"system": "laser induced CNV", "experiment": "Laser induced CNV mouse model, imageological examination (OCTA, FFA, OCT)", "format": "in vivo, C57BL/6 mice", "settings": "i.v. day 3 and 5, AS16 equivalent 2 mg/kg, day 7", "description": "as §1, with “Only the scan that passed through the center of the lesion was used to measure the thickness and length of the CNV lesion, which was analyzed and calculated” for “Flat-mounted RPE-choroid slides were prepared”, “using ImageJ software” for “making 4 cuts from margin to the optic nerve,”, “GraphPad Prism.” for “the fluorescence images were acquired by confocal microscopy (LMS980 Carl Zeiss). The CNV lesion area was quantitatively analyzed by ImageJ software.”"}, "HUVEC cells [4]": {"system": "HUVEC cells", "experiment": "Migration assay (trans-well)", "format": "cell-based, human", "settings": "without light irradiation; AS16 equivalent 5 μM; 24 h", "description": "200 μL serum-free medium containing 2*10^4 HUVEC cells were seeded in the upper chamber of the trans-well and 600 μL full medium was loaded in the lower chamber. Different drugs were added to the upper chamber. The grouping and treatment method as well as the calculation was consistent with above.\n(§2) To verify the anti-angiogenic property of nanoLAMPs in vitro, tube formation assay, migration assay, and wound healing assay were also conducted on HUVECs and the concentration of each group was set equal to nanoLAMPs containing 5 μM AS16 peptide."}, "HUVEC cells [5]": {"system": "HUVEC cells", "experiment": "Wound healing assay", "format": "cell-based, human", "settings": "without light irradiation; AS16 5 μM", "description": "5*10^5 HUVEC cells were seeded in the 24-well plates and incubated until they reached 90% confluence. Afterwards, a scratch crossing each well was conducted by 200 μL pipette head. The cells were then be washed with PBS for 2 times to remove the flouting cells and incubated with 1 ml DMEM medium with 5% FBS. The grouping and treatment method was consistent with above. The data of each group was measured and analyzed by Image J and GraphPad Prism, respectively.\nas §2"}}, "data": [{"compound": "FPNWSLRPMNQM [FM12 peptide]", "values": [{"measurement": "gene expression level of IL-2", "setting": "[1]", "result": "promote the gene expression level"}, {"measurement": "gene expression level of TNF-α", "setting": "[1]", "result": "promote the gene expression level"}]}, {"compound": "ATWLPPRAANLLMAAS [AS16 peptide]", "values": [{"measurement": "therapeutic effect compared with control group, tests in vivo", "setting": "laser induced CNV [2]", "result": "negligible therapeutic effect"}, {"measurement": "CNV area by OCTA", "setting": "laser induced CNV [3]; without light exposure", "result": "negligible effect"}, {"measurement": "HUVEC migration", "setting": "HUVEC cells [4]", "result": "least migrated HUVECs"}, {"measurement": "wound healing (recovery of scratches)", "setting": "HUVEC cells [5]", "result": "significant compromised recovery of generated scratches"}]}, {"compound": "COc1ccc(C=CC2=[N+]3C(=C(CO)c4c(C)cc(C=Cc5ccc(OC)cc5)n4[B-]3(C)C)C(C)=C2)cc1", "note": "[BODIPY, (3,7-bis((E)-4-methoxystyryl)-1,5,5,9-tetramethyl-5H-4λ4,5λ4-dipyrrolo[1,2-c:2′,1′-f][1,3,2]diazaborinin-10-yl)methanol]", "values": [{"measurement": "CNV area by OCTA", "setting": "laser induced CNV [3]; with light irradiation (656 nm, 50mw/cm^2, 5 min)", "result": "negligible effect"}]}]}
